Reference: ChEMBL document CHEMBL3286110, “Synthesis, cytotoxicity, DNA binding and topoisomerase II inhibition of cassiarin A derivatives” (Bioorg Med Chem Lett, 2014)
Active and inactive are the calls of the source. The rule behind the calls is not given here.

Legend:
KATO III cell = test: (§1) Cytotoxicity against human KATO III cells assessed as cell viability at 100 uM after 3 days by MTT assay relative to control; assay type: functional
BT-474 [1] = test: Cytotoxicity against human BT474 cells assessed as cell viability at 100 uM after 3 days by MTT assay relative to control; assay type: functional; conditions: for viability at 100 µM: BT-474, 72 h, read-out: Activity
Ca-Ski = test: (§2) Cytotoxicity against human CaSki cells assessed as cell viability at 100 uM after 3 days by MTT assay relative to control; assay type: functional
HepG2 [2] = test: Cytotoxicity against human HepG2 cells assessed as cell viability at 100 uM after 3 days by MTT assay relative to control; assay type: functional; conditions: for viability at 100 µM: HepG2, 72 h, read-out: Activity
SW-620 [3] = test: Cytotoxicity against human SW620 cells assessed as cell viability at 100 uM after 3 days by MTT assay relative to control; assay type: functional; conditions: for viability at 100 µM: SW-620, 72 h, read-out: Activity
ChaGo = test: (§3) Cytotoxicity against human ChaGo cells assessed as cell viability at 100 uM after 3 days by MTT assay relative to control; assay type: functional
[4] = Cytotoxicity against human CaSki cells after 3 days by MTT assay; assay type: functional, cell-based; conditions: Ca-Ski, 72 h
[5] = target: DNA topoisomerase 2-alpha (Homo sapiens) (UniProt P11388); test: Inhibition of human DNA topoisomerase-2-mediated decatenation of kinetoplast DNA at 10 uM after 1 hr by electrophoretic analysis relative to control
Chain of DNA topoisomerase 2-alpha (Homo sapiens) (P11388 whole entry): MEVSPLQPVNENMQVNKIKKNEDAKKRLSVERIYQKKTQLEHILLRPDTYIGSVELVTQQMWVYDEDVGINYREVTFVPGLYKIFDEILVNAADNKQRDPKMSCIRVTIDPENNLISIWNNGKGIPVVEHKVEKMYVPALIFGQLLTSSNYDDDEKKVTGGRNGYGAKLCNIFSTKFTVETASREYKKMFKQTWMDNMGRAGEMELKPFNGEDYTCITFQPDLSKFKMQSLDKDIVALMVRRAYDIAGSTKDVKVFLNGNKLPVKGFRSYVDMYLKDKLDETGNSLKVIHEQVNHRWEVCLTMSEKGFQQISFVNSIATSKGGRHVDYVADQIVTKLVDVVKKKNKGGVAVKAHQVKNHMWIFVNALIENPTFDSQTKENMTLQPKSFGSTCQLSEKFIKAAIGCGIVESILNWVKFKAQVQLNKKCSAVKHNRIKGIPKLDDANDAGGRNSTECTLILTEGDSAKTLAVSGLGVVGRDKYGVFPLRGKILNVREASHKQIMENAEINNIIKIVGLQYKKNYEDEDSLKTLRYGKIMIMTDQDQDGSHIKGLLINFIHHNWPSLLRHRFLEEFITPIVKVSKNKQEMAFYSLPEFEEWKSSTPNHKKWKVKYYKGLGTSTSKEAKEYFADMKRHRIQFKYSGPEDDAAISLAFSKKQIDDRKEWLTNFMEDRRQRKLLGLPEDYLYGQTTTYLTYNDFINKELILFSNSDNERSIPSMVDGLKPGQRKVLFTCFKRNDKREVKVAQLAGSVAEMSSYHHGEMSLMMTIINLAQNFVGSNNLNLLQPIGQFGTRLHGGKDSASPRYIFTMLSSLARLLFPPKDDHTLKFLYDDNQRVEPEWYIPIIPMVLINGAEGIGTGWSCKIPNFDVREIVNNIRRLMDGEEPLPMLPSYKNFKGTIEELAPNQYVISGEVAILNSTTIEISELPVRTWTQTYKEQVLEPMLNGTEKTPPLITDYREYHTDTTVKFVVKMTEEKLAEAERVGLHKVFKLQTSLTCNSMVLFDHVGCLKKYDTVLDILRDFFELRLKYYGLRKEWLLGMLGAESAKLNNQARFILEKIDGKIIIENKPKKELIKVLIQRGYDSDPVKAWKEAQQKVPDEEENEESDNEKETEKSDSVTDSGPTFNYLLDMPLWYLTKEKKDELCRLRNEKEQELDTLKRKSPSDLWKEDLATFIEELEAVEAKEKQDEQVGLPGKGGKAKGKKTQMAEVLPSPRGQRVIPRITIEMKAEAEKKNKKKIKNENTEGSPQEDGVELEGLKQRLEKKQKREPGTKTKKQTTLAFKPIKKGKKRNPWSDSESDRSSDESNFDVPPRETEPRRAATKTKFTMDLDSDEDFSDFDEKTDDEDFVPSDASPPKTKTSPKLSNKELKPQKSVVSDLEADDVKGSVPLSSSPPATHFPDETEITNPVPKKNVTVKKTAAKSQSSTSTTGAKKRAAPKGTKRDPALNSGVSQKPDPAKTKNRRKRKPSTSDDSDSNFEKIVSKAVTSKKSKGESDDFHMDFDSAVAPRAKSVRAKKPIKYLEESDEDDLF

[6] = as §1; assay type: functional; conditions: 72 h, read-out: Activity
Calf thymus DNA [7] = test: Binding affinity to calf thymus DNA assessed as melting temperature at 30 uM by thermal denaturation assay; assay type: nucleic-acid assay; conditions: Bos taurus
[8] = target: DNA topoisomerase 2-alpha (Homo sapiens) (UniProt P11388); test: Inhibition of human DNA topoisomerase-2-mediated decatenation of kinetoplast DNA at 30 uM after 1 hr by electrophoretic analysis relative to control
WI-38 = test: Cytotoxicity against human WI38 cells at 1 to 60 uM after 3 days by MTT assay; assay type: cell-based; conditions: wi-38, 72 h
[9] = target: DNA topoisomerase 2-alpha (Homo sapiens) (UniProt P11388); test: Inhibition of human DNA topoisomerase-2-mediated decatenation of kinetoplast DNA at 100 uM after 1 hr by electrophoretic analysis relative to control
[10] = as §3; assay type: functional; conditions: 72 h, read-out: Activity
[11] = target: DNA topoisomerase 2-alpha (Homo sapiens) (UniProt P11388); test: Inhibition of human DNA topoisomerase-2-mediated decatenation of kinetoplast DNA at 50 uM after 1 hr by electrophoretic analysis relative to control
[12] = as §2; assay type: functional; conditions: Ca-Ski, 72 h, read-out: Activity
HepG2 [13] = test: Cytotoxicity against human HepG2 cells after 3 days by MTT assay; assay type: functional, cell-based; conditions: HepG2, 72 h
Calf thymus DNA [14] = test: Binding affinity to calf thymus DNA assessed as change in melting temperature at 30 uM by thermal denaturation assay; assay type: nucleic-acid assay; conditions: Bos taurus
Bos taurus [15] = species on record: Bos taurus; test: Displacement of ethidium bromide from calf thymus DNA by Stern-Volmer plot analysis
[16] = Cytotoxicity against human KATO III cells after 3 days by MTT assay; assay type: functional, cell-based, KATO III cell; conditions: 72 h
Bos taurus [17] = species on record: Bos taurus; test: Displacement of ethidium bromide from calf thymus DNA by fluorescence spectroscopic analysis
SW-620 [18] = test: Cytotoxicity against human SW620 cells after 3 days by MTT assay; assay type: functional, cell-based; conditions: SW-620, 72 h
[19] = Cytotoxicity against human ChaGo cells after 3 days by MTT assay; assay type: functional, cell-based; conditions: 72 h
BT-474 [20] = test: Cytotoxicity against human BT474 cells after 3 days by MTT assay; assay type: functional, cell-based; conditions: BT-474, 72 h

## CC1=Cc2nc(C)cc3cc(OC(=O)c4ccc(F)cc4)cc(c23)O1
KATO III cell
  Activity: inactive
BT-474 [1]
  Activity: inactive
Ca-Ski
  Activity: inactive
HepG2 [2]
  Activity: inactive
SW-620 [3]
  Activity: inactive
ChaGo
  Activity: inactive

## CCCCC(=O)Oc1cc2c3c(nc(C)cc3c1)C=C(C)O2
KATO III cell
  Activity: inactive
BT-474 [1]
  Activity: inactive
Ca-Ski
  Activity: inactive
HepG2 [2]
  Activity: inactive
SW-620 [3]
  Activity: inactive
ChaGo
  Activity: inactive

## CC1=Cc2nc(C)cc3cc(O[Se]c4ccccc4)cc(c23)O1
[4]
  IC50: 29.7 µM
[5]
  inhibition: 31.5%
[6]
  viability at 100 µM: > 20%
BT-474 [1]
  viability at 100 µM: > 20%
Calf thymus DNA [7]
  Tm: 70 °C
[8]
  inhibition: 75.7%
HepG2 [2]
  viability at 100 µM: > 20%
WI-38
  Activity: Non-toxic
SW-620 [3]
  viability at 100 µM: > 20%
[9]
  inhibition: > 95%
[10]
  viability at 100 µM: > 20%
[11]
  inhibition: 95.7%

## CC1=Cc2nc(C)cc3cc(OC(=O)c4ccc(Cl)cc4)cc(c23)O1
KATO III cell
  Activity: inactive
BT-474 [1]
  Activity: inactive
Ca-Ski
  Activity: inactive
HepG2 [2]
  Activity: inactive
SW-620 [3]
  Activity: inactive
ChaGo
  Activity: inactive

## CCCC(=O)Oc1cc2c3c(nc(C)cc3c1)C=C(C)O2
KATO III cell
  Activity: inactive
BT-474 [1]
  Activity: inactive
Ca-Ski
  Activity: inactive
HepG2 [2]
  Activity: inactive
SW-620 [3]
  Activity: inactive
ChaGo
  Activity: inactive

## CC1=Cc2nc(C)cc3cc(O)cc(c23)O1 [CASSIARIN A]
[6]
  viability at 100 µM: > 20%
BT-474 [1]
  viability at 100 µM: > 20%
Calf thymus DNA [7]
  Tm: 70.7 °C
[12]
  viability at 100 µM: > 20%
HepG2 [2]
  viability at 100 µM: > 20%
SW-620 [3]
  viability at 100 µM: > 20%
[10]
  viability at 100 µM: > 20%

## CC1=Cc2nc(C)cc3cc(OCCO)cc(c23)O1
KATO III cell
  Activity: inactive
BT-474 [1]
  Activity: inactive
Ca-Ski
  Activity: inactive
HepG2 [2]
  Activity: inactive
SW-620 [3]
  Activity: inactive
ChaGo
  Activity: inactive

## CC1=Cc2nc(C)cc3cc(OC(=O)CCCBr)cc(c23)O1
KATO III cell
  Activity: inactive
BT-474 [1]
  Activity: inactive
Ca-Ski
  Activity: inactive
HepG2 [2]
  Activity: inactive
SW-620 [3]
  Activity: inactive
ChaGo
  Activity: inactive

## CC1=Cc2nc(C)cc3cc(OC(=O)c4ccc([N+](=O)[O-])cc4)cc(c23)O1
KATO III cell
  Activity: inactive
BT-474 [1]
  Activity: inactive
Ca-Ski
  Activity: inactive
HepG2 [2]
  Activity: inactive
SW-620 [3]
  Activity: inactive
ChaGo
  Activity: inactive

## CC1=Cc2nc(C)cc3cc(OCCOCCO)cc(c23)O1
HepG2 [13]
  IC50: 29.8 µM
BT-474 [1]
  viability at 100 µM: > 20%
Calf thymus DNA [7]
  Tm: 75.7 °C
[12]
  viability at 100 µM: > 20%
WI-38
  Activity: Non-toxic
SW-620 [3]
  viability at 100 µM: > 20%
[9]
  inhibition: inactive
Calf thymus DNA [14]
  ΔTm: 4.8 °C
[10]
  viability at 100 µM: > 20%
Bos taurus [15]
  KSV: 4.3 ×10³ /M
[16]
  IC50: 10.1 µM

## CCC(=O)Oc1cc2c3c(nc(C)cc3c1)C=C(C)O2
KATO III cell
  Activity: inactive
BT-474 [1]
  Activity: inactive
Ca-Ski
  Activity: inactive
HepG2 [2]
  Activity: inactive
SW-620 [3]
  Activity: inactive
ChaGo
  Activity: inactive

## CC1=Cc2nc(C)cc3cc(OCCN(C)C)cc(c23)O1
[4]
  IC50: 30.2 µM
Bos taurus [17]
  Kapp: 2.1 ×10⁶ /M
HepG2 [13]
  IC50: 10.1 µM
BT-474 [1]
  viability at 100 µM: > 20%
Calf thymus DNA [7]
  Tm: > 86 °C
SW-620 [18]
  IC50: 9.85 µM
[19]
  IC50: 29.5 µM
WI-38
  Activity: Non-toxic
[9]
  inhibition: 30.1%
Calf thymus DNA [14]
  ΔTm: > 15.3 °C
Bos taurus [15]
  KSV: 2.1 ×10⁴ /M
[16]
  IC50: 9.82 µM

## CC1=Cc2nc(C)cc3cc(OC(=O)c4ccc(C)cc4)cc(c23)O1
KATO III cell
  Activity: inactive
BT-474 [1]
  Activity: inactive
Ca-Ski
  Activity: inactive
HepG2 [2]
  Activity: inactive
SW-620 [3]
  Activity: inactive
ChaGo
  Activity: inactive

## CN(C)CCN1C(=O)c2cccc3cc(N)cc(c23)C1=O [AMONAFIDE]
[4]
  IC50: 9.96 µM
HepG2 [13]
  IC50: 1.71 µM
Calf thymus DNA [7]
  Tm: 78.9 °C
SW-620 [18]
  IC50: 0.32 µM
BT-474 [20]
  IC50: 37.8 µM
[19]
  IC50: 1.05 µM
WI-38
  Activity: Toxic
[9]
  inhibition: 61.8%
Calf thymus DNA [14]
  ΔTm: 8.2 °C
[16]
  IC50: 9.24 µM
